This is an account of results in patent publication US20140275197A1, “ALPHA-2 ADRENERGIC AGONIST FOR TREATING INTRAOCULAR PRESSURE AND OCULAR DISEASES THROUGH INTRAVITREAL AND INTRACAMERAL ROUTES” (priority 2013, published 2014).

Entries after “also recorded” stand apart in the source; their conditions may differ.

Series [1] relates to dutch belted rabbits. In words: Intraocular pressure lowering after bolus intracameral (IC) injection at equimolar concentration. Format: in vivo, rabbit. From the text:
Due to the chemical similarity and the pharmacokinetics profile of brimonidine, 4-bromo-N-imidazolidin-2-ylidene-1-H-benzimidazol-5-amine and dexmedetomidine, it would be expected for these molecules to have a similar behavior following intravitreal bolus injection into the back of the eye.

For series [2] the following is noted: in vivo.
In series [3] the test system is dutch belted rabbits. The series can be described thus: Intraocular pressure lowering after intravitreal (IVT) injection at equimolar concentration. The class given is in vivo, rabbit.
For series [4] the following is noted: rat, in vivo, po; cited from earlier work.
The conditions of series [5]: cited from earlier work.
Where [6] appears, read: increasing amount of brimonidine.

With `Brc1c(N=C2NCCN2)ccc2[nH]cnc12` [4-bromo-N-imidazolidin-2-ylidene-1-H-benzimidazol-5-amine], the “potency versus brimonidine and dexmedetomidine” value in series [1] (administered intracamerally at equimolar concentration, normotensive rabbits) is on record as “at least 50 fold”. Moreover, the “IOP decrease compared with brimonidine and dexmedetomidine” value in series [1] (bolus intracameral injection, equimolar concentration, rabbits) is “more efficacious at decreasing lop than brimonidine and dexmedetomidine; also recorded: outperforms brimonidine; also recorded: more effective than brimonidine and dexmedetomidine”; in series [3], “more efficacious at decreasing IOP than brimonidine and dexmedetomidine; also recorded: outperforms brimonidine; also recorded: more potent and efficacious than brimonidine”. Further, the “level in the systemic circulation” value in series [2] is reported as “undetectable levels”. For the same molecule, the “time for which the level in the aqueous humor is maintained” value in series [2] was at least 8 h. For the same molecule, the “amount found in urine” value in series [4] is recorded as “trace amounts”.

In the case of `Nc1cc(Cl)c(N=C2NCCN2)c(Cl)c1` [apraclonidine, 2,6-dichloro-N-imidazolidin-2-ylidene-benzene-1,4-diamine], the “clearance from the aqueous humor” value in series [5] (following topical dosing) is “rapidly cleared”.

As to `Brc1c(NC2=NCCN2)ccc2nccnc12` [brimonidine, (5-bromo-quinoxalin-6-yl)-imidazolidin-2-ylidene-amine], in series [5] (following topical dosing), the “clearance from the aqueous humor” value was “rapidly cleared”; the “passage through cornea and sclera” value is “readily pass through the cornea and sclera”. In series [5] (setting [6]), the “effect of increasing the amount on half life in the aqueous humor” value is listed as “does not improve its half life” and the “effect of increasing the amount on systemic exposure” value is on record as “increased systemic exposure”.
